For 31 compounds, EC50, IC50 and AC50 results are on record in ChEMBL document CHEMBL1201862, “PubChem BioAssay data set” (2004).

Active and inactive are the calls of the source.

Assay [1] deals with Streptococcus sp. 'group A'. Briefly: growth inhibition of control SK(-) GAS strain, dose response, counter-screen for streptokinase expression inhibitor project, luminescence, kanamycin, BacTiterGlo, confirmation (AID 1900). The class given is functional, organism-based. (The purpose of a counterscreen is to sort out artefacts and off-target activity.)
A further assay concerns Streptococcus. The experiment in a line: Group A Streptococcus viability loss, dose response, counter-screen for streptokinase expression inhibitor project, luminescence, BacTiterGlo (AID 1915).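 Note: potency for reduction of bacterial viability or growth.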 The class given is functional, organism-based.
The target in another assay is T1, Streptokinase A (Streptococcus pyogenes serotype M1, UniProt P10520).
T1 sequence (P10520 whole entry): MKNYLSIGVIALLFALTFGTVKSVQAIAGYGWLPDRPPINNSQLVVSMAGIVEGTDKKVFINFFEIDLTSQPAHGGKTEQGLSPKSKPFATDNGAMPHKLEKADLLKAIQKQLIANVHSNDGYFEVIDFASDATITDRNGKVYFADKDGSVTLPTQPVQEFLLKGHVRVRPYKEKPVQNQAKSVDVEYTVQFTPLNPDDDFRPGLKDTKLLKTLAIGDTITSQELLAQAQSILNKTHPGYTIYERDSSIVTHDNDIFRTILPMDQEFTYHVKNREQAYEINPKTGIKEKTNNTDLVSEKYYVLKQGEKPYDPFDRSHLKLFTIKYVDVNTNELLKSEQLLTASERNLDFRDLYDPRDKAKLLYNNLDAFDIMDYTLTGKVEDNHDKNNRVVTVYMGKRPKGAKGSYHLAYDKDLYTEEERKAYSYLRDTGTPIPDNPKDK
Briefly: S. pyogenes streptokinase expression inhibitors, potency, dose response, plasminogen activation absorbance, OD405 (AID 1914).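 Note: secreted streptokinase activity via plasminogen activation per viability signal from cell pellet.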 The class given is functional, Streptococcus pyogenes M1 GAS.

Assay [2] is described as follows: growth suppression of PTEN-null colon cells, dose response, cell-based, HCT116 PTEN knockout (AID 1047).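 Note: HCT116 colon tumor cells with PTEN knocked out; cells exposed to compound for 60 hours before readout; potency for loss of cell viability measured by luminescence.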 The assay is classed as functional.
Assay [3] can be described thus: growth suppression of beta-catenin-knockout colon cells, dose response, cell-based, HCT116, human colon tumor (AID 1045).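 Note: HCT116 colon tumor cells with beta catenin knocked out; cells exposed to compound for 60 hours.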 The class given is functional.
Assay [4] has as its target T2, Polyadenylate-binding protein 1 (Homo sapiens, UniProt P11940). Briefly: PABP1 MLLE–PAM2 interaction inhibitors, dose response, miRNA deadenylation inhibitor project, biochemical, fluorescence polarization, Cy5-PAM2 peptide, secondary (AID 602260). The note with it: read-out: IC50_Mean. The assay is classed as functional.
The target of assay [5] is T2, Polyadenylate-binding protein 1. Briefly: PABP1 MLLE–PAM2 binding inhibitor potency, dose response, biochemical, fluorescence polarization, FITC-PAM2 peptide (AID 602259). To be noted: read-out: IC50_Mean. The assay is classed as functional. (Fluorescence polarisation rises when a labelled molecule tumbles more slowly, as on binding a larger partner.)
The nature of assay [6]: Luminescence Cell-Based Dose Response HTS to Identify Activators of Luciferase Translation or Activity in H4 […] Cells. [Related pubchem assays: 1829 (Project Summary), 1814 (Primary HTS)]. The assay is classed as functional.
Assay [7] in a line: Luminescence Cell-Based Dose Confirmation HTS to Identify Activators of 5'UTR Stem-Loop Driven Alpha-Synuclein mRNA Translation in H4 Neuroglioblastoma Cells. [Related pubchem assays: 1829 (Project Summary), 1814 (Primary HTS)]. The assay is classed as functional.
Assay [8] has as its target T3, Corticotropin-releasing factor receptor 2/Corticotropin-releasing factor-binding protein (Homo sapiens, UniProt P24387+Q13324).
T3 sequence (Q13324 whole entry): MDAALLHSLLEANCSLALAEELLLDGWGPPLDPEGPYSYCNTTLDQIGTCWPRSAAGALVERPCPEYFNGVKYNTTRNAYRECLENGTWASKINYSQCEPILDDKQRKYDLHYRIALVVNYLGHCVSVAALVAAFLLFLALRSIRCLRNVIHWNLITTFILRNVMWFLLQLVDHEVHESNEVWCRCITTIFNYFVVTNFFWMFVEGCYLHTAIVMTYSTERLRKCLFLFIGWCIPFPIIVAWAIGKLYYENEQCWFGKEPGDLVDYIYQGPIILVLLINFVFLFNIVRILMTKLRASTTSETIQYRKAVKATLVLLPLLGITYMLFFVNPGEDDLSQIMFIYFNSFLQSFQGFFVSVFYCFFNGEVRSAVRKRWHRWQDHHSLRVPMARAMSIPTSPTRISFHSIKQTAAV
T3 sequence (P24387 whole entry): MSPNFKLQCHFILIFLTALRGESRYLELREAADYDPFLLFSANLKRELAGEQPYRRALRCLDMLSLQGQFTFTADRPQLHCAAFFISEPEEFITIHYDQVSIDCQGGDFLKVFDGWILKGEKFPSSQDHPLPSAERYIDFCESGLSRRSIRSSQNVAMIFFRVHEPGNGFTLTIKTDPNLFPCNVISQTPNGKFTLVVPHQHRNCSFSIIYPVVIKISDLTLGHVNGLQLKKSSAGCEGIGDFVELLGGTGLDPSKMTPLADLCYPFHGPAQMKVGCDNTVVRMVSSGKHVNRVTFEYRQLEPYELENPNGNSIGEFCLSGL
Briefly: Dose Response confirmation of uHTS hits for small molecule antagonists of the CRF-binding protein and CRF-R2 receptor complex. The note with it: read-out: IC50_Mean. The assay is classed as functional.

In another assay the test system is H4. The experiment in a line: Luminescence Cell-Based Dose Response HTS to Identify Activators of 5'UTR Stem-Loop Driven Prion Protein mRNA Translation in H4 Neuroglioblastoma Cells. [Related pubchem assays: 1829 (Project Summary), 1814 (Primary HTS)]. The note with it: Homo sapiens. The class given is functional.
Assay [9] addresses T3, Corticotropin-releasing factor receptor 2/Corticotropin-releasing factor-binding protein. The experiment in a line: activators of CRF receptor 2 with binding protein – uHTS hits, confirmation (AID 602473). The assay is classed as functional. The note with it: read-out: EC50_Mean.
Another assay concerns the target Cytochrome P450 3A4 (Homo sapiens, UniProt P08684).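 Note: CYP3A4 tested as one member of a cytochrome P450 panel screen.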
Another assay addresses Cytochrome P450 2C9 (Homo sapiens, UniProt P11712).
The target of another assay is T4, Cytochrome P450 1A2 (Homo sapiens, UniProt P05177).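 Note: PubChem cytochrome P450 panel assay, CYP1A2 panel member.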
T4 sequence (P05177 whole entry): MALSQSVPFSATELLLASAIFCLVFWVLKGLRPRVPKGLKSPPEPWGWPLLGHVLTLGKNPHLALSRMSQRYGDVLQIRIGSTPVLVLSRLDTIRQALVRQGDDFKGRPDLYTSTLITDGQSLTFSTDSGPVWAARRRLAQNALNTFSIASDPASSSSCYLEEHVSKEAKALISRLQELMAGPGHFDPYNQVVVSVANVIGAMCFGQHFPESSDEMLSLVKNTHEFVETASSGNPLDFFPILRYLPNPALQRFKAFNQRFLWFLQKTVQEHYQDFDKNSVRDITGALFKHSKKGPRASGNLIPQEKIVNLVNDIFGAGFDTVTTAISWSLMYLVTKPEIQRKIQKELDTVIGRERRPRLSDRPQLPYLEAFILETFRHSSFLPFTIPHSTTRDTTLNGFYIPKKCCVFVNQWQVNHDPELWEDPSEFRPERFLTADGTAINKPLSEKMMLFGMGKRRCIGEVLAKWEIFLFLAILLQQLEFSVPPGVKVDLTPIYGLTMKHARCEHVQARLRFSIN

T2 sequence (P11940 whole entry): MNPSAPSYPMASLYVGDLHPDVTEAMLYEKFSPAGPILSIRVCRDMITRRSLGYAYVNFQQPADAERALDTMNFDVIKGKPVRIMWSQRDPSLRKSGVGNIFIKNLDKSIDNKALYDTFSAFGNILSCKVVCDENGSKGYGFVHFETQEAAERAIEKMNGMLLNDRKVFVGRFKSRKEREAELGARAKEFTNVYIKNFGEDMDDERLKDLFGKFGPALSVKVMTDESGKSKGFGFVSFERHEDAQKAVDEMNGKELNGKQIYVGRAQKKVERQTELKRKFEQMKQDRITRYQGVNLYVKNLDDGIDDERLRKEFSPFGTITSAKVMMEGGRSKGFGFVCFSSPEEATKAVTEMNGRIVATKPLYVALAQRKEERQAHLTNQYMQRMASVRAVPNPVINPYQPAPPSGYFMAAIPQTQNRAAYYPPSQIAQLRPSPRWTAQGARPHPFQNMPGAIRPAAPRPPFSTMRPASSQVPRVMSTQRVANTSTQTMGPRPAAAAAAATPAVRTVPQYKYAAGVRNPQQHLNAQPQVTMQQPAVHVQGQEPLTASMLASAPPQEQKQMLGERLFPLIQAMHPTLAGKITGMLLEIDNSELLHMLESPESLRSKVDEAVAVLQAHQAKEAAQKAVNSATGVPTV
Sequence of Cytochrome P450 3A4 (P08684 whole entry): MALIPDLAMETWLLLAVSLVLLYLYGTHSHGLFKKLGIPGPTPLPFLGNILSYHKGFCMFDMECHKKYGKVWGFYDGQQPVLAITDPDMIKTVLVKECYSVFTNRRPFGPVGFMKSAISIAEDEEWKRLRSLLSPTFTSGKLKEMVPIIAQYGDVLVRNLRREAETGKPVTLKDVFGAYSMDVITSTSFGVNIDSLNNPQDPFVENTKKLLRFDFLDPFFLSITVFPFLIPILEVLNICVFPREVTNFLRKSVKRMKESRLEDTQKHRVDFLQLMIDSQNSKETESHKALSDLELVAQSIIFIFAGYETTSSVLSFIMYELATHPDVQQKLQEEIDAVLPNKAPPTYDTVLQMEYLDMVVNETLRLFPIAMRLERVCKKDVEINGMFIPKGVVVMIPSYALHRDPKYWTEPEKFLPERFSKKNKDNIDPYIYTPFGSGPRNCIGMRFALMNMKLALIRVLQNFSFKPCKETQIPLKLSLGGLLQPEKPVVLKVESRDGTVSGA
Sequence of Cytochrome P450 2C9 (P11712 whole entry): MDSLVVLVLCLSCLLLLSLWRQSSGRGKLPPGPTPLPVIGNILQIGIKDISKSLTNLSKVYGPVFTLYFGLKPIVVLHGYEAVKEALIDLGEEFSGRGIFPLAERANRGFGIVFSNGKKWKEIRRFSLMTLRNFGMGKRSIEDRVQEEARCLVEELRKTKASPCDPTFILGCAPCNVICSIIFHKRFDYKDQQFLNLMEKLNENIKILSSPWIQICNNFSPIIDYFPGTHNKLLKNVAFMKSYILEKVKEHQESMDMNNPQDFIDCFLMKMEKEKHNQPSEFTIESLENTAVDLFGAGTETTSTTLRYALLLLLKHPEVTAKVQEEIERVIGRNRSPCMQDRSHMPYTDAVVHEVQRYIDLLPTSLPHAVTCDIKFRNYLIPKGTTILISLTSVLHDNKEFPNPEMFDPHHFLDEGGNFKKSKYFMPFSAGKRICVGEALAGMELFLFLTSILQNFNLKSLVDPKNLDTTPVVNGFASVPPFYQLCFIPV

Regarding `Cc1cccc(-c2oc3ccccc3c2-c2ccc3c(c2)OCO3)c1`, the EC50 in assay [1] is 2.25 µM (active); in the assay on Streptococcus, > 150 µM (not active); on Streptokinase A, 5.16 µM (active).

Take `Cc1ccc(S(=O)(=O)CNC(=S)c2ccc3ccccc3c2)cc1`: on Streptokinase A, the EC50 is > 150 µM (not active).

Take `Cn1cc([N+](=O)[O-])c(C(=O)Nc2ccc(Br)cn2)n1`: the EC50 in assay [2] is 5.55 µM (active); in assay [3], 4.91 µM (active).

In the case of `CS(=O)(=O)c1ccc([C@@H](O)[C@@H](CO)NC(=O)C(Cl)Cl)cc1` [THIAMPHENICOL], the EC50 in assay [1] is 1.89 µM (active); in the assay on Streptococcus, 4.55 µM (active); on Streptokinase A, 4.02 µM (active).

Turning to `CCc1noc(C)c1C(=O)OCC(=O)NC(=O)c1ccccc1`, the EC50 (in [1]; in the assay on Streptococcus; at Streptokinase A) was > 150 µM (not active) each time.

On to `CC(=O)c1cccc(S(=O)(=O)N2CCN(CCOc3ccccc3)CC2)c1`, for which the IC50 in assay [4] and in assay [5] was > 66 µM (inactive) each time.

In the case of `O=C(NC(=S)Nc1cccnc1)c1cccc(Cl)c1`, the IC50 in assay [4] and in assay [5] was > 66 µM (inactive) in each case.

On to `COc1c(F)c(F)c(-c2csc(N)n2)c(F)c1F`, for which the IC50 in [4] and in [5] was > 66 µM (inactive) in each case.

Regarding `Cc1cccc2nc(CSCc3ccco3)cn12`, the IC50 in assay [4] and in assay [5] was > 66 µM (inactive) throughout.

As for `COc1ccc2c(c1OC)C(=O)N1C2SC[C@H]1C(=O)NC1CCCC1` (stereo not given in full), the IC50 in assay [4] and in [5] was > 66 µM (inactive) throughout.

Take `O=C(NC(=S)Nc1ccccc1N1CCCCC1)c1ccco1`: the IC50 in [4] and in [5] was > 66 µM (inactive) each time.

Regarding `CCOc1ccc(CN2CCN(CC(O)Cn3c4ccccc4c4ccccc43)CC2)cc1` (stereo not given), the results for the EC50 in assay [2] and in assay [3] were 9.94 µM (active) and 9.01 µM (active), respectively.

For `COc1ccc(C2=NOC(CNC(N)=S)C2)cc1` (stereo not given), the EC50 on Streptokinase A is reported as > 150 µM (not active).

Consider `COc1ccc(Cn2c(-c3ccco3)nc3oc4ccccc4c(=O)c3c2=O)cc1`, for which the EC50 in [1] is 12.1 µM (active); in the assay on Streptococcus it was 86.5 µM (active); at Streptokinase A, > 150 µM (not active).

For the compound `CCN(CC)CCNC(=O)c1ccc2c(=O)n(C3CCCC3)c(=S)[nH]c2c1`, the EC50 in assay [2] was 17.2 µM (active); in assay [3], 14.1 µM (active).

Take `N#Cc1nc(-c2ccc(OCc3ccccc3Cl)cc2)oc1NCCCn1ccnc1`: the results for the EC50 (in assay [1]; with Streptococcus; at Streptokinase A) were 4.38 µM (active), > 150 µM (not active) and 16.6 µM (active), respectively.

For `CCOc1ccc(C(=O)c2cccs2)cc1`, the EC50 in assay [6] was 13.5 µM (active); in [7], 55 µM (active); with H4, 11.4 µM (active); in assay [9], > 53 µM (inactive). Also, the IC50 in assay [8] was > 47.1 µM (inactive).

`COc1ccc(C(C)=O)cc1COc1cc(C)c(Cl)c(C)c1`: the EC50 (in assay [1]; in the assay on Streptococcus; at Streptokinase A) was > 150 µM (not active) in each case.

`CCCn1c(NC(=O)c2cccc(C)c2C)nc2ccccc21`: the EC50 was 7.43 µM (active) in assay [1], > 150 µM (not active) with Streptococcus and > 150 µM (not active) at Streptokinase A.

Regarding `COC(=O)c1cc(-c2ccc(OC)cc2F)nc2nc(SC)nc(O)c12`, the EC50 was 8.08 µM (active) in assay [1], 23.3 µM (active) with Streptococcus and > 150 µM (not active) on Streptokinase A.

In the case of `CCCC(=O)NC(Nc1cc(C(F)(F)F)ccc1Cl)C(Cl)(Cl)Cl` (stereo not given), the EC50 was 25.5 µM (active) in assay [2] and 33.6 µM (active) in [3].

Take `O=C1c2ccccc2C2=Nc3ccccc3SC(c3ccccc3F)C12` (stereo not given): the EC50 in assay [1] is 8.24 µM (active); in the assay with Streptococcus it was 12.7 µM (active); at Streptokinase A, 4.91 µM (active). Moreover, at Cytochrome P450 3A4, the AC50 – broadly, the concentration giving half of the maximal activity seen – was 0.355 µM (inconclusive).

For the compound `O=C1CSC(=S)N1c1cccnc1`, the IC50 in assay [4] and in [5] was > 66 µM (inactive) each time.

Consider `CC1=NC2=C(C(=O)CCC2)C(c2cc3c(cc2Br)OCO3)/C1=C(\O)OCCOC(C)C` (stereo not given), for which the IC50 in assay [4] and in assay [5] was > 66 µM (inactive) throughout.

For `CC(C)Sc1nc(NCc2ccco2)c2c3c(sc2n1)COC(C)(C)C3`, the values for the EC50 (in [6]; in assay [7]; in the assay with H4) were 17.2 µM (active), 14.6 µM (active) and 8.39 µM (active), respectively.

Take `CCOC(=O)N1CCN(C(=O)CSCc2nc(-c3ccccc3F)oc2C)CC1`: the IC50 in assay [4] and in assay [5] was > 66 µM (inactive) throughout. Further, the values for the AC50 on Cytochrome P450 2C9, on Cytochrome P450 1A2 and on Cytochrome P450 3A4 were 14.1 µM (inconclusive), 12.6 µM (inconclusive) and 25.1 µM (inconclusive), respectively.

Consider `COc1ccc(S(=O)(=O)NCC2CCCN(Cc3ccc(OC)cc3F)C2)cc1` (stereo not given), for which the EC50 in [1] was 114 µM (active); with Streptococcus, > 150 µM (not active); on Streptokinase A, > 150 µM (not active).

Regarding `O=C(CCCc1ccccc1)N1CCN(C2CCCCC2)CC1`, the EC50 is 13.7 µM (active) in [6], 13.5 µM (active) in assay [7] and 42.8 µM (active) in the assay with H4.

Take `COc1c(Cl)cnn(-c2ccc(C)cc2)c1=O`: the EC50 in [2] is 15.5 µM (active); in assay [3], 11.5 µM (active).

Consider `CCOc1ccccc1NC(=O)CSc1nnc(-c2cccnc2)o1`, for which the IC50 in [4] and in assay [5] was > 66 µM (inactive) each time.

Turning to `Cc1ccc2nsnc2c1S(=O)(=O)N(CCO)Cc1cc2cc3c(cc2nc1O)OCCO3`, the EC50 in [6] is 8.99 µM (active); in assay [7], 14.2 µM (active); in the assay with H4, 10.4 µM (active).
